Experimental findings from the Kinase Knowledgebase extract (Sharma et al. 2016) are described below.

In assay [1] the target is EGFR (UniProt P00533).
Assay [2] has as its target CDK2 (UniProt P24941). In words: Enzyme Assay.

The IC50 is the concentration that inhibits the measured activity by half. High values mean weaker potency in that assay, low ones greater potency in that assay.

Sequence of EGFR (P00533 whole entry, looked up): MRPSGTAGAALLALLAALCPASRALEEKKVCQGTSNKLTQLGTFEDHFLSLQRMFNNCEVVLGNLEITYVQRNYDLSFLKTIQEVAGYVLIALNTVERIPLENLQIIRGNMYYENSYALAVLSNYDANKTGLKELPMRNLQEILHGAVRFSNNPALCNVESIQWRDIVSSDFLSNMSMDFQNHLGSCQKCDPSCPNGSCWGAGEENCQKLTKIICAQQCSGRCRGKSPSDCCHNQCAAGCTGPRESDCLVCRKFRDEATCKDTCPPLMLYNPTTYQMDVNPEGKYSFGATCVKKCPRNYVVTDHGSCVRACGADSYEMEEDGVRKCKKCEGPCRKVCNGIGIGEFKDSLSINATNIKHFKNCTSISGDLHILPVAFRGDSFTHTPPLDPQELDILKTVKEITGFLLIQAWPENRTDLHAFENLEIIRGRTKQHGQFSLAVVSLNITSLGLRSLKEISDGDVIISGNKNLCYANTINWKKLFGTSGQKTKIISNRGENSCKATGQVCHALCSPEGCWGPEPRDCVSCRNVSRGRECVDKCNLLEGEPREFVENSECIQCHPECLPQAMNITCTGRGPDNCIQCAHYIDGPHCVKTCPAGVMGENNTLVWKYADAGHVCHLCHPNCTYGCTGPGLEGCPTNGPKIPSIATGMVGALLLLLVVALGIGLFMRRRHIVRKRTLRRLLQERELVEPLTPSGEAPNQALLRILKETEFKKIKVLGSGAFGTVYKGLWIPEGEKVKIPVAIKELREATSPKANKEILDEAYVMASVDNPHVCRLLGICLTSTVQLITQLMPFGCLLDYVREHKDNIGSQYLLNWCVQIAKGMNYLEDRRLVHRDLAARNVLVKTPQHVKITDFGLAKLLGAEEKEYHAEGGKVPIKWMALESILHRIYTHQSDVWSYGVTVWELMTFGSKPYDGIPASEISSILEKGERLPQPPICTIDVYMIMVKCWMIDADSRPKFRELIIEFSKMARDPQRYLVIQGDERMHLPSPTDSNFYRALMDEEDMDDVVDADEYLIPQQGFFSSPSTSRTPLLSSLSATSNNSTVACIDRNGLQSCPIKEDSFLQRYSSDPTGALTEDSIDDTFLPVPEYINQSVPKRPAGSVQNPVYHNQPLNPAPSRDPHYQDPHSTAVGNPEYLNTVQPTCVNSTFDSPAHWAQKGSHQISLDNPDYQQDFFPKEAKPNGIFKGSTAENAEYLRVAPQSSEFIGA

As to `CCC(C)CN1CCN(c2nc(C)c3nc(-c4c(NC[C@@H](O)c5cccc(Cl)c5)cc[nH]c4=O)[nH]c3n2)CC1` (some centres not stated), the IC50 in assay [1] and in assay [2] was less than 25 µM throughout.
As to `CCOC(=O)C1CC1CN1CCN(c2nc(C)c3nc(-c4c(NC[C@@H](O)c5cccc(Cl)c5)cc[nH]c4=O)[nH]c3n2)CC1` (some centres not stated), the IC50 in assay [1] and in assay [2] was less than 25 µM in each case.
With `CCN1CCN(c2nc(C)c3nc(-c4c(NC[C@@H](O)c5cccc(Cl)c5)cc[nH]c4=O)[nH]c3n2)CC1`, the IC50 in assay [1] and in assay [2] was less than 25 µM throughout.
For `O=c1[nH]c2cc3nc(-c4c(NC[C@@H](O)c5cccc(Cl)c5)cc[nH]c4=O)[nH]c3cc2[nH]1`, the IC50 in assay [1] and in assay [2] was less than 25 µM in each case.
As for `Cc1nc(N2CCN(C(=O)OC(C)(C)C)CC2)nc2[nH]c(-c3c(NC[C@@H](O)c4cccc(Cl)c4)cc[nH]c3=O)nc12`, the IC50 in assay [1] and in assay [2] was less than 25 µM each time.
For the compound `Cc1nc(N2CCN(Cc3ncc[nH]3)CC2)nc2[nH]c(-c3c(NC[C@@H](O)c4cccc(Cl)c4)cc[nH]c3=O)nc12`, the IC50 in assay [1] and in assay [2] was less than 25 µM each time.
Take `Cc1nc(N2CCNCC2)nc2[nH]c(-c3c(NC[C@@H](O)c4cccc(Cl)c4)cc[nH]c3=O)nc12`: the IC50 in assay [1] and in assay [2] was less than 25 µM throughout.
In the case of `Cc1nc(N2CCN(COCc3ccccc3)CC2)nc2[nH]c(-c3c(NC[C@@H](O)c4cccc(Cl)c4)cc[nH]c3=O)nc12`, the IC50 in assay [1] and in assay [2] was less than 25 µM throughout.
Regarding `Cc1nc(N2CCN(Cc3cccc(F)c3)CC2)nc2[nH]c(-c3c(NC[C@@H](O)c4cccc(Cl)c4)cc[nH]c3=O)nc12`, the IC50 in assay [1] and in assay [2] was less than 25 µM each time.
As for `Cc1nc(N2CCN(CC3CC3)CC2)nc2[nH]c(-c3c(NC[C@@H](O)c4cccc(Cl)c4)cc[nH]c3=O)nc12`, the IC50 in assay [1] and in assay [2] was less than 25 µM in each case.
For `O=c1[nH]ccc(NC[C@@H](O)c2cccc(Br)c2)c1-c1nc2cc3cn[nH]c3cc2[nH]1`, the IC50 in assay [1] and in assay [2] was less than 25 µM each time.
On to `Cc1nc(N2CCN(Cc3cccn3C)CC2)nc2[nH]c(-c3c(NC[C@@H](O)c4cccc(Cl)c4)cc[nH]c3=O)nc12`, for which the half-inhibitory concentration (IC50) in assay [1] and in assay [2] was less than 25 µM in each case.
Turning to `O=c1[nH]ccc(NCC(O)c2cccc(Cl)c2)c1-c1nc2cnccc2[nH]1` (configuration not stated), the IC50 in assay [1] and in assay [2] was less than 25 µM each time.
For `Cc1nc(N2CCN(Cc3nccn3C)CC2)nc2[nH]c(-c3c(NC[C@@H](O)c4cccc(Cl)c4)cc[nH]c3=O)nc12`, the IC50 in assay [1] and in assay [2] was less than 25 µM in each case.
Take `COc1ccc([C@H](O)CNc2cc[nH]c(=O)c2-c2nc3cc4cn[nH]c4cc3[nH]2)cc1Br`: the IC50 in assay [1] and in assay [2] was less than 25 µM throughout.
For `O=c1[nH]ccc(NCC(O)c2cccc(Br)c2)c1-c1nc2cnccc2[nH]1` (configuration not stated), the IC50 in assay [1] and in assay [2] was less than 25 µM throughout.
Regarding `O=c1[nH]ccc(NC[C@@H](O)c2cccc(Cl)c2)c1-c1nc2cc3cn[nH]c3cc2[nH]1`, the IC50 in assay [1] and in assay [2] was less than 25 µM throughout.
As for `Cc1nc(N2CCOCC2)nc2[nH]c(-c3c(NC[C@@H](O)c4cccc(Cl)c4)cc[nH]c3=O)nc12`, the IC50 in assay [1] and in assay [2] was less than 25 µM each time.
Regarding `COc1ccc(C(O)CNc2cc[nH]c(=O)c2-c2nc3cnccc3[nH]2)cc1Br` (configuration not stated), the IC50 in assay [1] and in assay [2] was less than 25 µM throughout.
`Cc1nc(N2CCN(Cc3ccccn3)CC2)nc2[nH]c(-c3c(NC[C@@H](O)c4cccc(Cl)c4)cc[nH]c3=O)nc12`: the IC50 in assay [1] and in assay [2] was less than 25 µM throughout.
Turning to `Cc1nc(N2CCN(Cc3nccs3)CC2)nc2[nH]c(-c3c(NC[C@@H](O)c4cccc(Cl)c4)cc[nH]c3=O)nc12`, the IC50 in assay [1] and in assay [2] was less than 25 µM in each case.
